Test results published in US12661308B2, “Antimicrobial AZO compounds and uses thereof” (The Regents Of The University Of Colorado, A Body Corporate, priority 2019, dated 2026).
Entries after “also recorded” stand apart in the source; their conditions may differ.

What was measured:
[1] = system: S. mutans (ATCC 25175) biofilm; test: Detachment study of S. mutans biofilm on monomer-coated polymeric substrates (Example 1); assay type: cell-based, Streptococcus mutans
Procedure: The polymeric substrates were prepared by mixing 54 wt % methyl methacrylate (MMA), 30 wt % polymethylmethacrylate (PMMA, MW ˜35 k), and 16 wt % tetraethylene glycol dimethacrylate (TEGDMA) at 70° C. for 2 hr. After mixing, 1 wt. % azobisisobutyronitrile (AIBN) was added to the formulation as an initiator and mixed.
The mixed formulation was added to circular molds (diameter=6.5 mm) cut from a strip of rubber (thickness=0.9 mm) and pressed between two glass microscope slides. The mold was clamped together and thermally cured at 80° C. for 1.5 hr.
The polymeric substrates were coated as follows. Coating solutions were prepared having the following monomer concentrations (see FIG. 3 for structures of the monomers): 0.5 mg/mL and 50 mg/mL solutions of a phenolic acrylated azobenzene monomer (OH-AAZO), 50 mg/mL acrylated azobenzene monomer (AAZO), 50 mg/mL 4-hydroxyl benzylacrylate (HBA), 50 mg/mL 2-hydroxylethyl methacrylate (HEMA).
The coating solutions included the monomer in N,N′-dimethylformamide (DMF) along with 0.5 mg/mL of AIBN and 0.1 mg/mL of Rhodamine B as an indicator dye. Once mixed, 3 μL of each coating solution was pipetted onto one side of the polymeric substrate and spun at 1000 RPM for 1 min followed by spinning at 6000 RPM for 3 s. The coating was cured under a nail lamp (Melody Susie UV Gel Nail Polish Dryer, Model DR-301C) for at least 15 min before repeating the coating procedure on the other side.
The controlled growth of biofilms varied depending on the bacteria strain. In the case of S. mutans, a BHI agar plate was streaked with S. mutans (ATCC 25175) and allowed to incubate at 37° C. in 5% CO2 for 60 hr to isolate a single bacterial colony. The colony was inoculated in 5 mL of BHI and allowed to incubate statically in the 5% CO2 incubator for 24 hr. The stock solution was diluted 1:50 in a 96-well plate containing the substrates of interest and allowed to incubate in the 5% CO2 incubator for an additional 24 hr.
The detachment study quantified the biofilm grown on each substrate via a series of washes in 1×PBS. The substrate was irradiated using a dental lamp (FlashMax P3 Ortho™, 1900 mW/cm2, wavelength=450-470 nm) on the underside of the vial for a total of ten 3 s irradiations per side. Following the series of washes, the substrate was sonicated for 10 min to remove the residual biofilm on the substrate. The wash solutions were serial diluted, plated, and grown at 37° C. and 5% CO2 to obtain the CFU count.
Images collected from a digital microscope (Zeiss Axioplan II microscope, 630×, step size 0.1 μm) after the substrate and bacteria were treated with BACLIGHT Live/Dead stain are included in FIG. 4.

[2] = system: S. mutans biofilm; test: Live-dead stain microscopy of S. mutans biofilms (Example 4); assay type: cell-based, Streptococcus mutans
Procedure: Microscope images were obtained using a Zeiss digital microscope at 6300× magnification using the FITC and CY3 channels. Following biofilm growth, the substrates were placed in a solution of live-dead stains (Invitrogen BacLight™) containing 1.5 μL Component A (SYTO® 9, green fluorescent nucleic acid stain) and 1.5 μL Component B (propidium iodide, red fluorescent nucleic acid stain) in 200 μL of sterile water. The substrates were soaked for 3 min, then gently washed in sterile water for 10 s, dried, and fixed to a glass slide prior to imaging.

[3] = system: S. agalactiae (Group B strep, GBS); test: Growth study, S. agalactiae (Group B strep); assay type: cell-based, Streptococcus agalactiae; conditions: 50 mg/ML coated substrates, BHI media, 24 h time-period
Procedure: A single bacterial colony was inoculated in 4 mL BHI media. The colony was grown to mid-log phase (to approximately OD600=0.4), statically at 37° C., which for was approximately 4 hours for the S. agalactiae GBS, approximately 11 hours for the S. pyogenes GAS, and approximately 6 hours for the S. pneumaoniae. They were diluted 1:5 in 80% glycerol (in water) solution (4 parts culture, 1 part glycerol, for a final glycerol concentration of 16%). In a 96-well plate, each was diluted to 1:100 resulting in a final concentration of 1×10^6 CFU/mL and grown at 37° C. with 5% CO2.

[4] = system: S. mutans; test: Kill curve kinetic study of S. mutans in media surrounding the coated substrate; assay type: cell-based, Streptococcus mutans
Procedure: FIG. 13 are images from a complete plating of media of S. mutans in contact with OH-AAZO-coated substrates at different timepoints following seeding. The media sampled shown in FIG. 13 (A) at t=0 h was serial diluted as described in Example 4 (below) and gave a total CFU count of (8.0±3.2)×10^6 CFUs. The media sampled shown in FIG. 13 (B) at t=4 h was streaked across the entire plate and gave a total CFU count of 8 CFUs. The media sampled shown in FIG. 13 (C) at t=24 h was streaked across the entire plate and gave a total CFU count of 0 CFUs.
We sampled aliquots of the media containing S. mutans surrounding the OH-AAZO substrate at different time points (FIG. 4). At t=0, S. mutans colonies (1×10^6 CFUs) were introduced to the OH-AAZO coated substrate. At t=4 h, the CFU count in the well was reduced 2-log, and by t=6 h, the CFU count had reduced to zero.

[5] = system: S. mutans; test: DIBAC4(3) membrane potential assay; assay type: cell-based, Streptococcus mutans
Procedure: Membrane potential assays were performed as described by Wu et al. with minor modifications. Wu et al., Antibacterial activity and membrane-disruptive mechanism of 3-p-trans-coumaroyl-2-hydroxyquinic acid, a novel phenolic compound from pine needles of Cedrus deodara, against Staphylococcus aureus, Molecules (2016), 21(8):1-12. S. mutans bacteria grown for 24 h in BHI broth were inoculated in a 96-well plate as described above. The plate was incubated for 8 h at 37° C. and 5% CO2. 2 μL of 0.1 mg/mL DIBAC4 (3) solution in DMSO was added to each well. The plate was then incubated in the dark overnight. The fluorescence reading was taken in a plate reader at λexcitation=492 nm and λemission=515 nm. Fluorescence values in bacteria-containing wells were normalized against fluorescence values containing the same substrate but no bacteria.

## C=CC(=O)Oc1ccccc1/N=N/c1ccccc1O [OH-AAZO, phenolic acrylated azobenzene]
[1]; 0.5 mg/mL coating solution, compared with 50 mg/mL coating
  antibacterial effect against S. mutans: did not result in the same antibacterial effect
[1]; 50 mg/mL coating, even prior to light/wash treatment
  S. mutans growth on the surface of the coated substrate: no growth at all
[1]; prior to wash/light treatment
  S. mutans biofilm on substrate, Live/Dead stain microscopy: comparatively very little biofilm
[2]; 1.5% OH-AAZO bulk substrate, 24 h
  live and dead bacteria on substrate, live-dead stain: high amounts of dead bacteria (lighter) and little to no live bacteria; also recorded: did not grow
[2]; 2% OH-AAZO bulk substrate, 24 h
  live and dead bacteria on substrate, live-dead stain: high amounts of dead bacteria (lighter) and little to no live bacteria; also recorded: did not grow
[2]; coated substrate, 24 h biofilm growth, compared to uncoated control
  live and dead bacteria on substrate, live-dead stain: high amounts of dead bacteria (lighter) and little to no live bacteria
[3]
  S. agalactiae growth on coated substrate and in media: did not grow on the coated substrate nor in the media
[4]; t=0 h, serial diluted
  total CFU count, complete plating of media: (8.0±3.2)×10^6 CFUs
[4]; t=4 h, from 1×10^6 CFUs at t=0
  reduction of CFU count in the well: 2 log
[4]; t=4 h, streaked across the entire plate
  total CFU count, complete plating of media: 8 CFUs
[4]; t=6 h
  S. mutans CFU count in the media: zero and complete S. mutans death and absence of S. mutans
[5]; 5 mg/mL coated substrate, relative to uncoated control
  DIBAC4(3) fluorescence of S. mutans: slight reduction
[5]; 25 mg/mL coated substrate
  DIBAC4(3) fluorescence of S. mutans: drop in fluorescence to zero
[5]; 50 mg/mL coated substrate
  DIBAC4(3) fluorescence of S. mutans: drop in fluorescence to zero; also recorded: dropped to zero
